The text below walks through data of patent publication US9855230B2 (ViiV Healthcare UK (No. 5) Limited, priority 2014, dated 2018).

Structures can show the parent of a compound that is named as a salt. Where two headings read alike, the source gives them in different places.

Data set [1] has as its system recombinant NL4-3 virus (nef section replaced with Renilla luciferase gene) in MT-2 cells. The experiment in a line: whole plant or invertebrate. The class given is cell-based, HIV. Conditions: NL43, luciferase activity in MT-2 cells infected 4-5 days with recombinant NL4-3 virus. The gist of the method: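 Nef-deleted NL4-3 reporter virus carrying Renilla luciferase was used to infect MT-2 cells in the presence of serial compound dilutions. After 4-5 days of infection, antiviral activity was quantified from luciferase activity using a live-cell substrate.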

Data set [2] in a line: Compound cytotoxicity (CC50), XTT-based colorimetric assay. The class given is cell-based. Conditions: human; uninfected MT2 cells, day 4, XTT assay. The gist of the method:
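Run under the antiviral-assay protocol but without virus. Viability was read on day 4 and CC50 values were derived from the readout.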
For orientation: Tetrazolium dyes change colour on reduction, which living cells bring about.

In general, CC50 refers to the concentration at which the toxic effect on the cells reaches its halfway point. `O=C(N[C@H](Cc1cc(F)cc(F)c1)c1ncccc1-c1c[nH]c2ccccc12)NS(=O)(=O)c1ccccc1Cl` [Example 102, (R)-N-((1-(3-(1H-indol-3-yl)pyridin-2-yl)-2-(3,5-difluorophenyl)ethyl)carbamoyl)-2-chlorobenzenesulfonamide, 2 TFA]: the results for the EC50 in data set [1] (read-out: Activity) and in data set [1] (read-out: EC50) were greater than 1 µM and 11.5 µM, respectively. Further, the CC50 at 4 day in data set [2] is greater than 33 µM.

Turning to `Cc1ccccc1S(=O)(=O)NC(=O)N[C@H](Cc1cc(F)cc(F)c1)c1ncccc1-c1cncc(F)c1` [Example 103, (R)-N-((2-(3,5-difluorophenyl)-1-(5′-fluoro-[3,3′-bipyridin]-2-yl)ethyl)carbamoyl)-2-methylbenzenesulfonamide, 2 TFA], the EC50 in data set [1] (read-out: Activity) was greater than 1 µM. In addition, in data set [2], the CC50 at 4 day is greater than 100 µM.

For `Cc1cc(-c2cccnc2[C@@H](Cc2cc(F)cc(F)c2)NC(=O)NS(=O)(=O)c2ccccc2Cl)c(C)s1` [Example 104, (R)-2-chloro-N-((2-(3,5-difluorophenyl)-1-(3-(2,5-dimethylthiophen-3-yl)pyridin-2-yl)ethyl)carbamoyl)benzenesulfonamide, TFA], the EC50 in data set [1] (read-out: Activity) is greater than 1 µM. This compound also displayed a CC50 at 4 day in data set [2] greater than 33 µM.

With `CCOc1ccc(-c2cccnc2[C@@H](Cc2ccccc2)NC(=O)NS(=O)(=O)c2ccccc2C)cc1` [Example 105, (R)-N-((1-(3-(4-ethoxyphenyl)pyridin-2-yl)-2-phenylethyl)carbamoyl)-2-methylbenzenesulfonamide, TFA], the EC50 in data set [1] (read-out: Activity) was greater than 1 µM; in data set [1] (read-out: EC50), 16.7 µM. For the same compound, the CC50 at 4 day in data set [2] came out at 75 µM.

As for `O=C(N[C@H](Cc1cc(F)cc(F)c1)c1ncccc1-c1cccc(C(=O)NC2CC2)c1)NS(=O)(=O)c1ccccc1Cl` [Example 106, (R)-3-(2-(1-(3-((2-chlorophenyl)sulfonyl)ureido)-2-(3,5-difluorophenyl)ethyl)pyridin-3-yl)-N-cyclopropylbenzamide, TFA], in data set [1] (read-out: Activity), the EC50 was greater than 1 µM. Further, in data set [2], the CC50 at 4 day is greater than 100 µM.

Turning to `Cc1ccccc1S(=O)(=O)NC(=O)N[C@H](Cc1cc(F)cc(F)c1)c1ncccc1Br` [Example 107, (R)-N-((1-(3-bromopyridin-2-yl)-2-(3,5-difluorophenyl)ethyl)carbamoyl)-2-methylbenzenesulfonamide, TFA], the EC50 in data set [1] (read-out: Activity) was greater than 1 µM. This compound also had a CC50 at 4 day in data set [2] greater than 33 µM.

Turning to `NC(=O)c1cc(-c2cccnc2[C@@H](Cc2cc(F)cc(F)c2)NC(=O)NS(=O)(=O)c2ccccc2Cl)ccc1F` [Example 109, (R)-5-(2-(1-(3-((2-chlorophenyl)sulfonyl)ureido)-2-(3,5-difluorophenyl)ethyl)pyridin-3-yl)-2-fluorobenzamide, TFA], the EC50 in data set [1] (read-out: Activity) was greater than 1 µM. The compound further showed a CC50 at 4 day in data set [2] greater than 100 µM.

With `O=C(N[C@H](Cc1cc(F)cc(F)c1)c1ncccc1-c1cncc(F)c1)NS(=O)(=O)c1ccccc1Cl` [Example 110, (R)-2-chloro-N-((2-(3,5-difluorophenyl)-1-(5′-fluoro-[3,3′-bipyridin]-2-yl)ethyl)carbamoyl)benzenesulfonamide, TFA], in data set [1] (read-out: Activity), the EC50 is greater than 1 µM. This compound also yielded a CC50 at 4 day in data set [2] greater than 33 µM.

Consider `COC(=O)Nc1ccc(-c2cccnc2[C@@H](Cc2ccccc2)NC(=O)NS(=O)(=O)c2ccccc2Cl)cc1` [Example 111, (R)-methyl (4-(2-(1-(3-((2-chlorophenyl)sulfonyl)ureido)-2-phenylethyl)pyridin-3-yl)phenyl)carbamate, TFA], for which the EC50 was greater than 1 µM in data set [1] (read-out: Activity) and 30.4 µM in data set [1] (read-out: EC50). In data set [2], this compound yielded a CC50 at 4 day of 82 µM.

Consider `Cc1ccccc1S(=O)(=O)NC(=O)N[C@H](Cc1ccccc1)c1ncccc1Br` [Example 112, (R)-N-((1-(3-bromopyridin-2-yl)-2-phenylethyl)carbamoyl)-2-methylbenzenesulfonamide, TFA], for which the EC50 in data set [1] (read-out: Activity) was greater than 1 µM. This compound also displayed a CC50 at 4 day in data set [2] greater than 100 µM.

For the compound `Cc1ccccc1S(=O)(=O)NC(=O)NC(Cc1ccccc1)c1ncccc1Br` (stereo not drawn) [Example 116, N-((1-(3-bromopyridin-2-yl)-2-phenylethyl)carbamoyl)-2-methylbenzenesulfonamide, TFA], the EC50 in data set [1] (read-out: Activity) was greater than 1 µM. In data set [2], this compound yielded a CC50 at 4 day greater than 100 µM.

Take `Cc1ccccc1S(=O)(=O)NC(=O)N[C@H](Cc1cc(F)cc(F)c1)c1ncccc1-c1ccc(F)c(C(N)=O)c1` [Example 117, (R)-5-(2-(2-(3,5-difluorophenyl)-1-(3-(o-tolylsulfonyl)ureido)ethyl)pyridin-3-yl)-2-fluorobenzamide, TFA]: the figures for the EC50 in data set [1] (read-out: Activity) and in data set [1] (read-out: EC50) were greater than 1 µM and 8.34 µM, respectively. The CC50 at 4 day in data set [2] is greater than 100 µM.

`COC(=O)Nc1ccc(-c2cccnc2C(Cc2ccccc2)NC(=O)NS(=O)(=O)c2ccccc2Cl)cc1` (stereo not drawn) [Example 118, methyl (4-(2-(1-(3-((2-chlorophenyl)sulfonyl)ureido)-2-phenylethyl)pyridin-3-yl)phenyl)carbamate, TFA]: the EC50 in data set [1] (read-out: Activity) was greater than 1 µM. This compound also returned a CC50 at 4 day in data set [2] greater than 100 µM.

As for `Cc1ccccc1S(=O)(=O)NC(=O)N[C@@H](Cc1cc(F)cc(F)c1)c1ncccc1-c1ccc2cn(C)nc2c1` [Example 119, (S)-N-((2-(3,5-difluorophenyl)-1-(3-(2-methyl-2H-indazol-6-yl)pyridin-2-yl)ethyl)carbamoyl)-2-methylbenzenesulfonamide, TFA], the EC50 in data set [1] (read-out: Activity) lay within 0.1 to 1 µM. Moreover, the CC50 at 4 day in data set [2] turned out to be 58 µM.

As to `Cc1ccccc1S(=O)(=O)NC(=O)N[C@@H](Cc1cc(F)cc(F)c1)c1ncccc1-c1ccc(CN(C)C)cc1` [Example 120, (S)-N-((2-(3,5-difluorophenyl)-1-(3-(4-((dimethylamino)methyl)phenyl)pyridin-2-yl)ethyl)carbamoyl)-2-methylbenzenesulfonamide, TFA], the EC50 in data set [1] (read-out: Activity) was 0.1 to 1 µM; in data set [1] (read-out: EC50), 0.36 µM. In addition, in data set [2], the CC50 at 4 day is greater than 100 µM.

As to `Cc1ccccc1S(=O)(=O)NC(=O)N[C@@H](Cc1cc(F)cc(F)c1)c1ncccc1-c1cccc(CO)c1` [Example 121, (S)-N-((2-(3,5-difluorophenyl)-1-(3-(3-(hydroxymethyl)phenyl)pyridin-2-yl)ethyl)carbamoyl)-2-methylbenzenesulfonamide, TFA], the EC50 in data set [1] (read-out: Activity) is 0.1 to 1 µM. The compound further showed a CC50 at 4 day in data set [2] greater than 100 µM.

`Cc1ccccc1S(=O)(=O)NC(=O)N[C@@H](Cc1cc(F)cc(F)c1)c1ncccc1-c1ccc(CN2CCOCC2)s1` [Example 122, (S)-N-((2-(3,5-difluorophenyl)-1-(3-(5-(morpholinomethyl)thiophen-2-yl)pyridin-2-yl)ethyl)carbamoyl)-2-methylbenzenesulfonamide, 2 TFA]: the EC50 in data set [1] (read-out: Activity) was 0.1 to 1 µM. The same compound showed a CC50 at 4 day in data set [2] greater than 100 µM.

Take `CCOc1ccc(-c2cccnc2[C@H](Cc2cc(F)cc(F)c2)NC(=O)NS(=O)(=O)c2ccccc2C)cc1F` [Example 123, (S)-N-((2-(3,5-difluorophenyl)-1-(3-(4-ethoxy-3-fluorophenyl)pyridin-2-yl)ethyl)carbamoyl)-2-methylbenzenesulfonamide, TFA]: the EC50 is 0.1 to 1 µM in data set [1] (read-out: Activity) and 0.6 µM in data set [1] (read-out: EC50). Moreover, in data set [2], the CC50 at 4 day is 55 µM.

For the compound `COc1ncccc1-c1cccnc1[C@H](Cc1cc(F)cc(F)c1)NC(=O)NS(=O)(=O)c1ccccc1C` [Example 124, (S)-N-((2-(3,5-difluorophenyl)-1-(2′-methoxy-[3,3′-bipyridin]-2-yl)ethyl)carbamoyl)-2-methylbenzenesulfonamide, TFA], the EC50 in data set [1] (read-out: Activity) is greater than 1 µM. Further, the CC50 at 4 day in data set [2] is greater than 100 µM.

As for `Cc1ccccc1S(=O)(=O)NC(=O)N[C@@H](Cc1cc(F)cc(F)c1)c1ncccc1-c1ccc(-c2cccs2)cc1` [Example 125, (S)-N-((2-(3,5-difluorophenyl)-1-(3-(4-(thiophen-2-yl)phenyl)pyridin-2-yl)ethyl)carbamoyl)-2-methylbenzenesulfonamide, TFA], the EC50 in data set [1] (read-out: Activity) is greater than 1 µM. The compound further had a CC50 at 4 day in data set [2] of 38 µM.

For the compound `Cc1ccccc1S(=O)(=O)NC(=O)N[C@@H](Cc1cc(F)cc(F)c1)c1ncccc1-c1ccnc(F)c1C` [Example 126, (S)-N-((2-(3,5-difluorophenyl)-1-(2′-fluoro-3′-methyl-[3,4′-bipyridin]-2-yl)ethyl)carbamoyl)-2-methylbenzenesulfonamide, TFA], the EC50 in data set [1] (read-out: Activity) is greater than 1 µM; in data set [1] (read-out: EC50) it was 1.52 µM. This compound also showed a cytotoxic concentration (CC50) at 4 day in data set [2] greater than 33 µM.

As to `Cc1ccccc1S(=O)(=O)NC(=O)N[C@@H](Cc1cc(F)cc(F)c1)c1ncccc1-c1coc2ccccc12` [Example 127, (S)-N-((1-(3-(benzofuran-3-yl)pyridin-2-yl)-2-(3,5-difluorophenyl)ethyl)carbamoyl)-2-methylbenzenesulfonamide, TFA], the EC50 in data set [1] (read-out: Activity) was greater than 1 µM. The compound also had a CC50 at 4 day in data set [2] of 72 µM.

As for `Cc1ccccc1S(=O)(=O)NC(=O)N[C@@H](Cc1cc(F)cc(F)c1)c1ncccc1-c1ccc(C#N)cc1` [Example 128, (S)-N-((1-(3-(4-cyanophenyl)pyridin-2-yl)-2-(3,5-difluorophenyl)ethyl)carbamoyl)-2-methylbenzenesulfonamide, TFA], in data set [1] (read-out: Activity), the EC50 is greater than 1 µM. In data set [2], this compound yielded a CC50 at 4 day of 80 µM.

Consider `Cc1ccccc1S(=O)(=O)NC(=O)N[C@@H](Cc1cc(F)cc(F)c1)c1ncccc1-c1cccc(C(=O)OC(C)(C)C)c1` [Example 130, (S)-tert-butyl 3-(2-(2-(3,5-difluorophenyl)-1-(3-(o-tolylsulfonyl)ureido)ethyl)pyridin-3-yl)benzoate, TFA], for which the EC50 in data set [1] (read-out: Activity) is greater than 1 µM. The compound further registered a CC50 at 4 day in data set [2] of 53 µM.

For `Cc1ccccc1S(=O)(=O)NC(=O)N[C@@H](Cc1cc(F)cc(F)c1)c1ncccc1-c1ccc(F)c(C(=O)O)c1` [Example 131, (S)-5-(2-(2-(3,5-difluorophenyl)-1-(3-(o-tolylsulfonyl)ureido)ethyl)pyridin-3-yl)-2-fluorobenzoic Acid, TFA], in data set [1] (read-out: Activity), the EC50 was greater than 1 µM. In data set [2], this compound came in with a CC50 at 4 day greater than 100 µM.
